Earlier results as cited in patent publication US20240251900A1, “PATCH FOR TARGETED DELIVERY OF HAIR COMPOSITION AND METHOD FOR APPLYING SAME” (Better Not Younger Corporation, priority 2022, published 2024).

System: hair follicle
Settings: Capixyl techsheet page 38

acetyl tetrapeptide-3
stimulation of hair growth versus market reference Minoxidil: stimulate hair growth better than the market reference, Minoxidil
